Data taken from ChEMBL document CHEMBL3885881, “DrugMatrix”.

Species: Rattus norvegicus
Assay: DrugMatrix - Regimen: Daily Repeat
Type: toxicity, organism-based, Sprague-Dawley
Design: regimen Daily Repeat, gender Male, age 6-8 weeks
Conditions: in vivo, sc, route subcutaneous, […]; for ABSOLUTE BASOPHIL / ABSOLUTE EOSINOPHIL / ABSOLUTE LYMPHOCYTE / ABSOLUTE MONOCYTE / ABSOLUTE SEGMENTED NEUTROPHIL / BASOPHIL / EOSINOPHIL / ERYTHROCYTE COUNT / HEMATOCRIT / HEMOGLOBIN / LEUKOCYTE COUNT / LYMPHOCYTE / MEAN CORPUSCULAR HEMOGLOBIN / MEAN CORPUSCULAR HEMOGLOBIN CONCENTRATION / MEAN CORPUSCULAR VOLUME / MONOCYTE / NEUTROPHIL / NUCLEATED RED BLOOD CELLS / PLATELET COUNT: tissue Blood; for ALANINE AMINOTRANSFERASE / ALBUMIN / ALKALINE PHOSPHATASE / ASPARTATE AMINOTRANSFERASE / BLOOD UREA NITROGEN / CARBON DIOXIDE / CHLORIDE / CHOLESTEROL / CREATINE PHOSPHOKINASE / CREATININE / GLUCOSE / LACTATE DEHYDROGENASE / LIPASE / PHOSPHORUS / POTASSIUM / SODIUM / TOTAL BILIRUBIN / TOTAL PROTEIN / URIC ACID: tissue Plasma
[1] = 0 mg/kg, 72 h, dose level Control, time 3 day
[2] = 0 mg/kg, 120 h, dose level Control, time 5 day
[3] = 56 mg/kg, 72 h, dose level High, time 3 day

Structure (SMILES): C[C@]12CCC(=O)C=C1CC[C@@H]1[C@@H]2[C@@H](O)C[C@@]2(C)[C@H]1CC[C@]2(O)C(=O)CO [HYDROCORTISONE]
- ABSOLUTE BASOPHIL [1]: 0 CELLS/uL
- ABSOLUTE EOSINOPHIL [1]: 0 CELLS/uL
- ABSOLUTE LYMPHOCYTE [1]: 10887 CELLS/uL
- ABSOLUTE MONOCYTE [1]: 56 CELLS/uL
- ABSOLUTE SEGMENTED NEUTROPHIL [1]: 1057 CELLS/uL
- BASOPHIL [1]: 0%
- EOSINOPHIL [1]: 0%
- ERYTHROCYTE COUNT [1]: 5.31 x10E6/uL
- HEMATOCRIT [1]: 33.78%
- HEMOGLOBIN [1]: 13.4 G/DL
- LEUKOCYTE COUNT [1]: 12 x10E3/uL
- LYMPHOCYTE [1]: 91.17%
- MEAN CORPUSCULAR HEMOGLOBIN [1]: 25.25 pg
- MEAN CORPUSCULAR HEMOGLOBIN CONCENTRATION [1]: 39.65 G/DL
- MEAN CORPUSCULAR VOLUME [1]: 63.65 fL
- MONOCYTE [1]: 0.5%
- NEUTROPHIL [1]: 8.33%
- NUCLEATED RED BLOOD CELLS [1]: 0 /100WBC
- PLATELET COUNT [1]: 1142 x10E3/uL
- ALANINE AMINOTRANSFERASE [1]: 57.17 u/L
- ALBUMIN [1]: 4.28 G/DL
- ALKALINE PHOSPHATASE [1]: 425.83 u/L
- ASPARTATE AMINOTRANSFERASE [1]: 93.83 u/L
- BLOOD UREA NITROGEN [1]: 14.17 mg/dL
- CARBON DIOXIDE [1]: 33.5 mmol/L
- CHLORIDE [1]: 100 MEQ/L
- CHOLESTEROL [1]: 70.33 mg/dL
- CREATINE PHOSPHOKINASE [1]: 438.67 u/L
- CREATININE [1]: 0.19 mg/dL
- GLUCOSE [1]: 138.5 mg/dL
- LACTATE DEHYDROGENASE [1]: 190.17 u/L
- LIPASE [1]: 9.83 u/L
- PHOSPHORUS [1]: 11.05 mg/dL
- POTASSIUM [1]: 6.59 MEQ/L
- SODIUM [1]: 143.58 MEQ/L
- TOTAL BILIRUBIN [1]: 0.22 mg/dL
- TOTAL PROTEIN [1]: 6.15 G/DL
- URIC ACID [1]: 1.3 mg/dL
- ABSOLUTE BASOPHIL [2]: 0 CELLS/uL
- ABSOLUTE EOSINOPHIL [2]: 91.17 CELLS/uL
- ABSOLUTE LYMPHOCYTE [2]: 11847.67 CELLS/uL
- ABSOLUTE MONOCYTE [2]: 172.83 CELLS/uL
- ABSOLUTE SEGMENTED NEUTROPHIL [2]: 1105 CELLS/uL
- BASOPHIL [2]: 0%
- EOSINOPHIL [2]: 0.67%
- ERYTHROCYTE COUNT [2]: 5.35 x10E6/uL
- HEMATOCRIT [2]: 33.65%
- HEMOGLOBIN [2]: 13.42 G/DL
- LEUKOCYTE COUNT [2]: 13.22 x10E3/uL
- LYMPHOCYTE [2]: 89.83%
- MEAN CORPUSCULAR HEMOGLOBIN [2]: 25.12 pg
- MEAN CORPUSCULAR HEMOGLOBIN CONCENTRATION [2]: 39.9 G/DL
- MEAN CORPUSCULAR VOLUME [2]: 63 fL
- MONOCYTE [2]: 1.33%
- NEUTROPHIL [2]: 8.17%
- NUCLEATED RED BLOOD CELLS [2]: 0 /100WBC
- PLATELET COUNT [2]: 1347.83 x10E3/uL
- ALANINE AMINOTRANSFERASE [2]: 50 u/L
- ALBUMIN [2]: 4.1 G/DL
- ALKALINE PHOSPHATASE [2]: 329.17 u/L
- ASPARTATE AMINOTRANSFERASE [2]: 77.17 u/L
- BLOOD UREA NITROGEN [2]: 16.83 mg/dL
- CARBON DIOXIDE [2]: 34.83 mmol/L
- CHLORIDE [2]: 99.83 MEQ/L
- CHOLESTEROL [2]: 75.67 mg/dL
- CREATINE PHOSPHOKINASE [2]: 295.83 u/L
- CREATININE [2]: 0.18 mg/dL
- GLUCOSE [2]: 156.33 mg/dL
- LACTATE DEHYDROGENASE [2]: 166.83 u/L
- LIPASE [2]: 9.83 u/L
- PHOSPHORUS [2]: 12.18 mg/dL
- POTASSIUM [2]: 6.69 MEQ/L
- SODIUM [2]: 143.97 MEQ/L
- TOTAL BILIRUBIN [2]: 0.22 mg/dL
- TOTAL PROTEIN [2]: 6.05 G/DL
- URIC ACID [2]: 1.6 mg/dL
- ABSOLUTE BASOPHIL [3]: 0 CELLS/uL
- ABSOLUTE EOSINOPHIL [3]: 0 CELLS/uL
- ABSOLUTE LYMPHOCYTE [3]: 1706 CELLS/uL
- ABSOLUTE MONOCYTE [3]: 103.33 CELLS/uL
- ABSOLUTE SEGMENTED NEUTROPHIL [3]: 3357.33 CELLS/uL
- BASOPHIL [3]: 0%
- EOSINOPHIL [3]: 0%
- ERYTHROCYTE COUNT [3]: 5.79 x10E6/uL
- HEMATOCRIT [3]: 37.97%
- HEMOGLOBIN [3]: 14.73 G/DL
- LEUKOCYTE COUNT [3]: 5.17 x10E3/uL
- LYMPHOCYTE [3]: 33.33%
- MEAN CORPUSCULAR HEMOGLOBIN [3]: 25.47 pg
- MEAN CORPUSCULAR HEMOGLOBIN CONCENTRATION [3]: 38.87 G/DL
- MEAN CORPUSCULAR VOLUME [3]: 65.57 fL
- MONOCYTE [3]: 2%
- NEUTROPHIL [3]: 64.67%
- NUCLEATED RED BLOOD CELLS [3]: 0.33 /100WBC
- PLATELET COUNT [3]: 1157.67 x10E3/uL
- ALANINE AMINOTRANSFERASE [3]: 124.33 u/L
- ALBUMIN [3]: 5.07 G/DL
- ALKALINE PHOSPHATASE [3]: 509.67 u/L
- ASPARTATE AMINOTRANSFERASE [3]: 177.33 u/L
- BLOOD UREA NITROGEN [3]: 13.67 mg/dL
- CARBON DIOXIDE [3]: 29 mmol/L
- CHLORIDE [3]: 99 MEQ/L
- CHOLESTEROL [3]: 119.33 mg/dL
- CREATINE PHOSPHOKINASE [3]: 250.33 u/L
- CREATININE [3]: 0.17 mg/dL
- GLUCOSE [3]: 360 mg/dL
- LACTATE DEHYDROGENASE [3]: 443.67 u/L
- LIPASE [3]: 10.67 u/L
- PHOSPHORUS [3]: 10.63 mg/dL
- POTASSIUM [3]: 5.68 MEQ/L
- SODIUM [3]: 144.93 MEQ/L
- TOTAL BILIRUBIN [3]: 0.17 mg/dL
- TOTAL PROTEIN [3]: 6.97 G/DL
- URIC ACID [3]: 1.43 mg/dL
